# Measured values published in patent US20250205168A1, “METHOD FOR PRODUCING NUCLEIC ACID-ENCAPSULATED LIPID NANOPARTICLES, METHOD FOR PRODUCING PHARMACEUTICAL COMPOSITION CONTAINING SAID LIPID NANOPARTICLES, AND METHOD FOR INTRODUCING NUCLEIC ACID INTO CELL OR TARGET CELL” (NOF Corporation, priority 2022, published 2025).
# Entries after “also recorded” stand apart in the source; their conditions may differ.
# What was measured:
# [1] = mRNA encapsulation rate (Ribogreen assay); assay type: physicochemical; details: 37° C. 5 min
# Procedure: The particle size, polydispersity index (PdI), and mRNA encapsulation rate of the obtained nucleic acid-encapsulated nanoparticles were analyzed. The particle size and PdI were measured by the dynamic light scattering method using a Zetasizer (registered trademark). The mRNA encapsulation rate was measured by the Ribogreen (registered trademark) assay. […]
# The particle size, polydispersity index (PdI), and mRNA encapsulation rate of the obtained nucleic acid-encapsulated nanoparticles were analyzed. The particle size and PdI were measured by the dynamic light scattering method using a Zetasizer (registered trademark). The mRNA encapsulation rate was measured by the Ribogreen (registered trademark) assay. As a result, mRNA was encapsulated at any incubation temperature, and no difference in the encapsulation rate was observed. The particle size of the obtained nucleic acid-encapsulated nanoparticles tended to increase with increasing incubation temperature (see FIG. 24 and FIG. 25).
# The particle size, polydispersity index (PdI), and mRNA encapsulation rate of the obtained nucleic acid-encapsulated nanoparticles were analyzed. The particle size and PdI were measured by the dynamic light scattering method using a Zetasizer (registered trademark). The mRNA encapsulation rate was measured by the Ribogreen (registered trademark) assay. As a result, the encapsulation rate of mRNA tended to decrease with increasing salt concentration of the buffer (see FIG. 34 and FIG. 35).
# The particle size, polydispersity index (PdI), and mRNA encapsulation rate of the obtained nucleic acid-encapsulated nanoparticles were analyzed. The particle size and PdI were measured by the dynamic light scattering method using a Zetasizer (registered trademark). The mRNA encapsulation rate was measured by the Ribogreen (registered trademark) assay. As a result, mRNA was encapsulated (see Table 5).
# The particle size, polydispersity index (PdI), and mRNA encapsulation rate of the obtained nucleic acid-encapsulated nanoparticles or nucleic acid-encapsulated nanoparticles prepared by freeze-dry technique in Comparative Example 1 were analyzed. The particle size and PdI were measured by the dynamic light scattering method using a Zetasizer (registered trademark). The mRNA encapsulation rate was measured by the Ribogreen (registered trademark) assay. […] In addition, the particle size of the nucleic acid-encapsulated nanoparticles was smaller than that of nucleic acid-encapsulated nanoparticles produced by the freeze-dry technique (see FIG. 14 and FIG. 15).
# The particle size, polydispersity index (PdI), and mRNA encapsulation rate of the obtained nucleic acid-encapsulated nanoparticles or nucleic acid-encapsulated nanoparticles prepared by freeze-dry technique in Comparative Example 2, Comparative Example 3 were analyzed. The particle size and PdI were measured by the dynamic light scattering method using a Zetasizer (registered trademark). The mRNA encapsulation rate was measured by the Ribogreen (registered trademark) assay. […] In addition, the particle size of the nucleic acid-encapsulated nanoparticles was smaller than that of nucleic acid-encapsulated nanoparticles produced by the freeze-dry technique (see FIG. 36 and FIG. 37). In FIG. 36, FIG. 37 and FIG. 38, Comparative Example 2 in which the total flow rate during preparation of lipid nanoparticles was 1 mL/min, is shown as “freeze-dry (FR=1)”, and Comparative Example 3, in which the total flow rate was 16 mL/min, is shown as “freeze-dry (FR=16)”.
# The particle size, polydispersity index (PdI), and mRNA encapsulation rate of the obtained nucleic acid-encapsulated nanoparticles (liquid) or nucleic acid-encapsulated nanoparticles produced using a microfluidic channel (MF) (LNP prepared with the same lipid composition and using MES buffer (20 mM, pH 6.5) containing nucleic acid and an ethanol solution of lipid) were analyzed. […]
# [2] = Zeta potential by electrophoretic light scattering (Zetasizer); assay type: physicochemical; details: Example 10; particles produced using SS-OP at pH and pH 5.5 compared to pH 6, pH 6.5 and pH 7; measured in MES pH 5-7
# Procedure: Among the obtained nucleic acid-encapsulated nanoparticles, the particles produced using SS-OP were analyzed for Zeta potential. Zeta potential was measured by the electrophoretic light scattering method using Zetasizer (registered trademark) and using MES buffer (pH 5, pH 5.5, pH 6, pH 6.5 or pH 7).
# [3] = tested on: HeLa cells; assay: nucleic acid introduction into HeLa cells, luciferase luminescence (Steady-Glo, GloMax 20/20 luminometer); assay type: cell-based; details: Example 10, particles produced using SS-OP, after 13 hr
# Procedure: The nucleic acid-encapsulated nanoparticles obtained were applied to HeLa cells to evaluate the nucleic acid introduction efficiency. HeLa cells were seeded in D-MEM medium (high glucose) (containing L-glutamine and phenol red) (containing 10% FBS and 1% penicillin-streptomycin solution added) at 5×10^3 cells/100 μL in a 96-well flat-bottom transparent plate. The obtained nucleic acid-encapsulated particles were added such that the nucleic acid concentration in the medium was 0.02 μg/4 μL. After 16 hr, the amount of luciferase protein introduced was evaluated using the amount of luminescence. 100 μL of Steady-Glo (registered trademark) was added, and the cells were lysed by shaking for 5 min, and the amount of luminescence was quantified using a GloMax 20/20 luminometer. As a result, the introduction of luciferase protein was confirmed at any incubation temperatures, and no difference in in vitro activity was observed.
# The nucleic acid-encapsulated nanoparticles obtained were applied to HeLa cells and the nucleic acid introduction efficiency was evaluated. […] After 13 hr, the amount of luciferase protein introduced was evaluated using the amount of luminescence. 100. μL of Steady-Glo (registered trademark) was added, and the cells were lysed by shaking for 5 min, and the amount of luminescence was quantified using a GloMax 20/20 luminometer. […]
# [4] = Example 4, LNP in MES pH 5, 5.5, 6, 6.5 or 7, mRNA 1.5 μg/135 μL
# [5] = Example 10, LNP and mRNA (3 μg/135 μL) in MES pH 5, 5.5, 6, 6.5 or 7
"encapsulation rate at higher pH, in words [1, 4]","encapsulation rate at higher pH, in words [1, 5]","Zeta potential, in words [2]",SMILES,"in vitro activity (luciferase luminescence) by pH of production, in words [3]"
"decreased at pH 6, pH 6.5, and pH 7",decreased at pH 6.5 and pH 7,–,"CCCCCCCC/C=C\CCCCCCCC(=O)OCC(CN(C)C)OC(=O)CCCCCCC/C=C\CCCCCCCC (stereo not shown) [DODAP, 1,2-dioleoyloxy-3-dimethylaminopropane, reference compound]",–
decreased at pH 6.5 and pH 7,decreased at pH 6.5 and pH 7,–,"CCCCCC=CCC=CCCCCCCCCC(CCCCCCCCC=CCC=CCCCCC)OC(=O)CCCN(C)C (stereo not shown) [MC3, heptatriaconta-6,9,28,31-tetraen-19-yl-4-(dimethylamino)butanoate, reference compound]",–
"decreased at pH 6, pH 6.5, and pH 7",decreased at pH 6.5 and pH 7,–,CCCCCCCC/C=C\CCCCCCCC(=O)OCCC1CCN(CCSCSCCN2CCC(CCOC(=O)CCCCCCC/C=C\CCCCCCCC)CC2)CC1 [SS-OC],–
decreased at pH 6.5 and pH 7,decreased at pH 6.5 and pH 7,higher values in a low pH environment,CCCCCCCC/C=C\CCCCCCCC(=O)Oc1ccc(CC(=O)OCCC2CCN(CCSSCCN3CCC(CCOC(=O)Cc4ccc(OC(=O)CCCCCCC/C=C\CCCCCCCC)cc4)CC3)CC2)cc1 [SS-OP],"highest in vitro activity was observed at pH 6; also recorded: slightly decreasing at pH 6.5; also recorded: low activity was observed at pH 5, pH 5.5, and pH 7"
